Assay results reported in patent US11098073B2, “Triphenylphosphonium-tethered tetracyclines for use in treating cancer” (Oxford University Innovation Limited, priority 2017, dated 2021).
Counter-ions that a name gives are not always drawn.

System: MDA-231 cancer cells
Assay: Inhibition of proliferation assay: cell confluence (IncuCyte live cell imaging)
Assay type: cell-based
Settings: compound tested at 10 μM, images every 3 h over 4-5 d, relative confluence normalised to time zero
From the text: Inhibition of Proliferation Assay
The confluence value is a surrogate for cell proliferation and growth. The value is expressed as a percent confluence, which represents the fraction of culture dish-surface that is occupied by cells. As the number of cells in the dish increases over time due to proliferation, so will their coverage of that surface increase. Expansion of the cell population on the cell culture-dish surface and confluence have mostly a linear relationship until the cells on the plate surface begin to reach saturation or maximum density.
Confluence is determined based on image analysis. Image based software can identify objects in the image field base on changes to pixel density in a grey scale image. The software can then assign a mask to those pixels within the object. Objects can be ‘gated’ out based on size and shape. To determine cell confluence, images of cells are first masked as objects. The surface area of the image that is masked is measured and compared to the total surface area of the culture dish surface to obtain a percent confluence.
MDA-231 cancer cells were obtained from ATCC. Cells were cultured in Dulbecco's Modified Eagle Medium (DMEM) supplemented with 10% Fetal Bovine Serum (FBS), 2 mM Glutamax, 1 mM Non Essential Amino Acid (NEAA) solution and 1 mM sodium pyruvate. […] Final DMSO concentrations were […]. Images were acquired with an IncuCyte Live Cell Imaging microscopy (Essen Bioscience) at every 3 h under cell culture conditions with 10 OX objective over 4-5 d. Cell confluence was calculated from one field of view per well using the IncuCyte in-built algorithm. Relative confluence values were obtained by normalising each value to the time zero value in each sample.

SMILES	% Confluence
C[C@H]1c2ccc(NC(=O)CCCCCCCCCC[P+](c3ccccc3)(c3ccccc3)c3ccccc3)c(O)c2C(=O)C2=C(O)[C@]3(O)C(=O)C(C(N)=O)=C(O)[C@@H](N(C)C)[C@@H]3[C@@H](O)[C@@H]21 [Example 6, (10-{[(5R,5aR,6S,6aR,7S,10aS)-9-carbamoyl-7-(dimethylamino)-1,6,8,10a,11-pentahydroxy-5-methyl-10,12-dioxo-5,5a,6,6a,7,10,10a,12-octahydrotetracen-2-yl]carbamoyl}decyl)triphenylphosphonium trifluoroacetate]	36.8%
C[C@H]1c2ccc(CNC(=O)CCCCCCC[P+](c3ccccc3)(c3ccccc3)c3ccccc3)c(O)c2C(=O)C2=C(O)[C@]3(O)C(=O)C(C(N)=O)=C(O)[C@@H](N(C)C)[C@@H]3[C@@H](O)[C@@H]21 [Example 17, trifluoroacetate]	79.4%
C[C@H]1c2ccc(NC(=O)CCCCCCCCCCC[P+](c3ccccc3)(c3ccccc3)c3ccccc3)c(O)c2C(=O)C2=C(O)[C@]3(O)C(=O)C(C(N)=O)=C(O)[C@@H](N(C)C)[C@@H]3[C@@H](O)[C@@H]21 [Example 1, (11-{[(5R,5aR,6S,6aR,7S,10aS)-9-carbamoyl-7-(dimethylamino)-1,6,8,10a,11-pentahydroxy-5-methyl-10,12-dioxo-5,5a,6,6a,7,10,10a,12-octahydrotetracen-2-yl]carbamoyl}undecyl)triphenylphosphonium formate]	27.1%
C[C@H]1c2ccc(NC(=O)CCNC(=O)CCCC[P+](c3ccccc3)(c3ccccc3)c3ccccc3)c(O)c2C(=O)C2=C(O)[C@]3(O)C(=O)C(C(N)=O)=C(O)[C@@H](N(C)C)[C@@H]3[C@@H](O)[C@@H]21 [Example 12, {4-[(2-{[(5R,5aR,6S,6aR,7S,10aS)-9-carbamoyl-7-(dimethylamino)-1,6,8,10a,11-pentahydroxy-5-methyl-10,12-dioxo-5,5a,6,6a,7,10,10a,12-octahydrotetracen-2-yl]carbamoyl}ethyl)carbamoyl]butyl}triphenylphosphonium trifluoroacetate]	91.9%
C[C@H]1c2c(NC(=O)CCCCCCCCC[P+](c3ccccc3)(c3ccccc3)c3ccccc3)ccc(O)c2C(=O)C2=C(O)[C@]3(O)C(=O)C(C(N)=O)=C(O)[C@@H](N(C)C)[C@@H]3[C@@H](O)[C@@H]21 [Example 14, (9-{[(6aS,10S,10aR,11 S,11 aR,12R)-8-carbamoyl-10-(dimethylamino)-4,6,6a,9,11-pentahydroxy-12-methyl-5,7-dioxo-5,6a,7,10,10a,11,11a,12-octahydrotetracen-1-yl]carbamoyl}nonyl)triphenylphosphonium trifluoroacetate]	87.9%
C[C@H]1c2ccc(NC(=O)CCCCC[P+](c3ccccc3)(c3ccccc3)c3ccccc3)c(O)c2C(=O)C2=C(O)[C@]3(O)C(=O)C(C(N)=O)=C(O)[C@@H](N(C)C)[C@@H]3[C@@H](O)[C@@H]21.[Cl-] [Example 18]	59.1%
C[C@H]1c2ccc(NC(=O)CNC(=O)CCCCCCC[PH](c3ccccc3)(c3ccccc3)c3ccccc3)c(O)c2C(=O)C2=C(O)[C@]3(O)C(=O)C(C(N)=O)=C(O)[C@@H](N(C)C)[C@@H]3[C@@H](O)[C@@H]21 [Example 3, {7-[({[(5R,5aR,6S,6aR,7S,10aS)-9-carbamoyl-7-(dimethylamino)-1,6,8,10a,11-pentahydroxy-5-methyl-10,12-dioxo-5,5a,6,6a,7,10,10a,12-octahydrotetracen-2-yl]carbamoyl}methyl)carbamoyl]heptyl}triphenylphosphonium trifluoroacetate]	99.9%
C[C@H]1c2ccc(NC(=O)CNC(=O)CCCCC[P+](c3ccccc3)(c3ccccc3)c3ccccc3)c(O)c2C(=O)C2=C(O)[C@]3(O)C(=O)C(C(N)=O)=C(O)[C@@H](N(C)C)[C@@H]3[C@@H](O)[C@@H]21 [Example 8, {5-[({[(5R,5aR,6S,6aR,7S,10aS)-9-carbamoyl-7-(dimethylamino)-1,6,8,10a,11-pentahydroxy-5-methyl-10,12-dioxo-5,5a,6,6a,7,10,10a,12-octahydrotetracen-2-yl]carbamoyl}methyl)carbamoyl]pentyl}triphenylphosphonium trifluoroacetate]	96.2%
C[C@H]1c2cccc(O)c2C(=O)C2=C(O)[C@]3(O)C(=O)C(C(N)=O)=C(O)[C@@H](N(C)C)[C@@H]3[C@@H](O)[C@@H]21 [Doxycycline, reference compound]	98.7%
C[C@H]1c2ccc(CNC(=O)CCCCC[P+](c3ccccc3)(c3ccccc3)c3ccccc3)c(O)c2C(=O)C2=C(O)[C@]3(O)C(=O)C(C(N)=O)=C(O)[C@@H](N(C)C)[C@@H]3[C@@H](O)[C@@H]21 [Example 16, trifluoroacetate]	116.3%
C[C@H]1c2ccc(NC(=O)CCCCCCCCC[P+](c3ccccc3)(c3ccccc3)c3ccccc3)c(O)c2C(=O)C2=C(O)[C@]3(O)C(=O)C(C(N)=O)=C(O)[C@@H](N(C)C)[C@@H]3[C@@H](O)[C@@H]21 [Example 7, (9-{[(5R,5aR,6S,6aR,7S,10aS)-9-carbamoyl-7-(dimethylamino)-1,6,8,10a,11-pentahydroxy-5-methyl-10,12-dioxo-5,5a,6,6a,7,10,10a,12-octahydrotetracen-2-yl]carbamoyl}nonyl)triphenylphosphonium trifluoroacetate]	38.7%
C[C@H]1c2ccc(NC(=O)CCNC(=O)CCCCCCC[P+](c3ccccc3)(c3ccccc3)c3ccccc3)c(O)c2C(=O)C2=C(O)[C@]3(O)C(=O)C(C(N)=O)=C(O)[C@@H](N(C)C)[C@@H]3[C@@H](O)[C@@H]21 [Example 10, {7-[(2-{[(5R,5aR,6S,6aR,7S,10aS)-9-carbamoyl-7-(dimethylamino)-1,6,8,10a,11-pentahydroxy-5-methyl-10,12-dioxo-5,5a,6,6a,7,10,10a,12-octahydrotetracen-2-yl]carbamoyl}ethyl)carbamoyl]heptyl}triphenylphosphonium trifluoroacetate]	92.2%
C[C@H]1c2ccc(NC(=O)CCNC(=O)CCCCCCCCC[P+](c3ccccc3)(c3ccccc3)c3ccccc3)c(O)c2C(=O)C2=C(O)[C@]3(O)C(=O)C(C(N)=O)=C(O)[C@@H](N(C)C)[C@@H]3[C@@H](O)[C@@H]21 [Example 11, {9-[(2-{[(5R,5aR,6S,6aR,7S,10aS)-9-carbamoyl-7-(dimethylamino)-1,6,8,10a,11-pentahydroxy-5-methyl-10,12-dioxo-5,5a,6,6a,7,10,10a,12-octahydrotetracen-2-yl]carbamoyl}ethyl)carbamoyl]nonyl}triphenylphosphonium trifluoroacetate]	45%
C[C@H]1c2ccc(CNC(=O)CCCCCCCCC[P+](c3ccccc3)(c3ccccc3)c3ccccc3)c(O)c2C(=O)C2=C(O)[C@]3(O)C(=O)C(C(N)=O)=C(O)[C@@H](N(C)C)[C@@H]3[C@@H](O)[C@@H]21 [Example 5, trifluoroacetate]	37%
C[C@H]1c2c(NC(=O)CCCCCCC[P+](c3ccccc3)(c3ccccc3)c3ccccc3)ccc(O)c2C(=O)C2=C(O)[C@]3(O)C(=O)C(C(N)=O)=C(O)[C@@H](N(C)C)[C@@H]3[C@@H](O)[C@@H]21 [Example 4, (7-{[(6aS,10S,10aR,11S,11aR,12R)-8-carbamoyl-10-(dimethylamino)-4,6,6a,9,11-pentahydroxy-12-methyl-5,7-dioxo-5,6a,7,10,10a,11,11a,12-octahydrotetracen-1-yl]carbamoyl}heptyl)triphenylphosphonium trifluoroacetate]	124.3%
C[C@H]1c2c(NC(=O)CCNC(=O)CCCCCCC[P+](c3ccccc3)(c3ccccc3)c3ccccc3)ccc(O)c2C(=O)C2=C(O)[C@]3(O)C(=O)C(C(N)=O)=C(O)[C@@H](N(C)C)[C@@H]3[C@@H](O)[C@@H]21 [Example 15, {7-[(2-{[(6aS,10S,10aR,11S,11aR,12R)-8-carbamoyl-10-(dimethylamino)-4,6,6a,9,11-pentahydroxy-12-methyl-5,7-dioxo-5,6a,7,10,10a,11,11a,12-octahydrotetracen-1-yl]carbamoyl}ethyl)carbamoyl}heptyl}triphenylphosphonium trifluoroacetate]	112.8%
C[C@H]1c2c(NC(=O)CCCCCCCCCCC[P+](c3ccccc3)(c3ccccc3)c3ccccc3)ccc(O)c2C(=O)C2=C(O)[C@]3(O)C(=O)C(C(N)=O)=C(O)[C@@H](N(C)C)[C@@H]3[C@@H](O)[C@@H]21 [Example 13, (11-{[(6aS,10S,10aR,11 S,11 aR,12R)-8-carbamoyl-10-(dimethylamino)-4,6,6a,9,11-pentahydroxy-12-methyl-5,7-dioxo-5,6a,7,10,10a,11,11a,12-octahydrotetracen-1-yl]carbamoyl}undecyl)triphenylphosphonium trifluoroacetate]	53.7%

Same assay, conditions: compound tested at 50 μM, images every 3 h over 4-5 d, relative confluence normalised to time zero

SMILES	% Confluence
C[C@H]1c2cccc(O)c2C(=O)C2=C(O)[C@]3(O)C(=O)C(C(N)=O)=C(O)[C@@H](N(C)C)[C@@H]3[C@@H](O)[C@@H]21 [Doxycycline, reference compound]	91%
